Assay results reported in patent US20220306623A1, “PYRIDYL OR PYRIMIDYL MTOR KINASE INHIBITORS” (GLAXOSMITHKLINE INTELLECTUAL PROPERTY DEVELOPMENT LIMITED, priority 2019, published 2022).
One block for each compound: values may come before it.

How the values were obtained:
[1] = system: type I collagen deposition in primary lung fibroblasts derived from human tissue; test: High throughput type I collagen deposition (scar-in-a-jar) high content screening assay; format: cell-based; settings: Primary lung fibroblast, 72 h, human pulmonary fibroblasts, 384-well, TGF-β 1 ng/ml 72 h, total collagen area, read-out: mean pIC50, high throughput type I collagen deposition (scar-in-a-jar) (converted)
Method: Highthroughput, cellular type I collagen deposition was measured by adapting a published method; scar-in-a-jar (Chen et al., 2009) to primary lung fibroblasts derived from human tissue and combining with high content analysis to permit fluorescent quantification of collagen deposited in the extracellular matrix (ECM). The human biological samples were sourced ethically and their research use was in accordance with the terms of the informed consents.
Test compounds were dissolved in 100% DMSO to give 10 mM (stocks) and further diluted to give half log dilutions to generate an 11 point concentration response curve. 1 ul was transferred to 384-well plates (Greiner Group, Kremsmunster, Austria, Catalogue No Greine 781280r).
Human pulmonary fibroblasts were maintained in DMEM media (Gibco, Catalogue No 21969) supplemented with 4 mM L-glutamine (Gibco Catalogue No 25030-024) and 10% heat inactivated FBS (Gibco, Catalogue No 10099-141) at 37° C. in 10% CO2. Cells were harvested and resuspended at 4×10^6 cells/ml in a T175 cell culture flask (BD Falcom, Catalogue No: 353112) containing 50 mL of culture media. After 4 days 37° C. in 10% CO2, cells were harvested and seeded at 4000 cells per well ([…]) into 384-well plates (BD Falcon, Catalogue No 353962Greiner) in assay media (0.4% heat inactivated FBS, 4 mM L-glutamine). Plates were sealed with breathable seals (Sigma, Catalogue No. BEM-1). Assay plates were incubated for 72 h at 37° C. in 10% CO2.
Assay media was supplemented with 112.5 mg/ml Ficoll 70 (Sigma, Catalogue No F2878), 75 mg/ml Ficoll 400 (Sigma, Catalogue No F4375) and 50 µg/ml ascorbic acid (Sigma, Catalogue No A8960). 30 μL assay media were added to 1 l compound ([…] compound concentration in 1% DMSO). Diluted compounds (10 μL) were transferred to plates containing cells and incubated for 3 h at 37° C. in 10% CO2. Transforming growth factor (TGF)-β (R&D systems, Catalogue No 100-B/CF) was reconstituted to give 10 µg/mL (stock) and further diluted in assay media containing Ficoll and ascorbic acid (1 in 3333). TGF-β was added to cell plates (1 ng/ml final) and cells incubated for 72 h at 37° C. in 10% CO2.
Media was aspirated from cells and 30 µL/well 100% ice-cold methanol added and incubated at RT for 5 min to fix cells. Methanol was aspirated and cells washed with PBS (3×). To block and permeabilise, cells were incubated with PBS containing 1% BSA and 0.1% Triton X 100 for 20 min, followed by PBS wash (3×). Cells were incubated with mouse anti human type I collagen monoclonal antibody (Sigma, Catalogue No C2456) diluted 1:1000 in PBS for 24 h at 4° C. Cells were washed with PBS containing 0.1% Tween-20 (3×) and incubated with secondary alexa fluor 488 goat-anti-mouse antibody (Invitrogen, Catalogue No A11001, 1 in 500 in PBS) and Hoechst 33342 (Sigma, Catalogue No H21492), 1 in 1000 in PBS) for 1 h at RT, prior to washing with PBS containing 0.1% Tween (×4).
Type I collagen immunoreactivity was detected using the INCell 2000 Analyzer (GE Healthcare, INcell 2000) set to excitation and emission wavelengths for DAPI and FITC with laser focus and exposure adjusted to appropriate levels. Images were imported and analysed using Columbus software (Perkin Elmer) and computational algorithms to quantify “total collagen area” and “cell count”.
Data analysis was performed by determining 0/inhibition values for test compounds relative to the minimum (media only) and maximum responses (TGF-βstimulation) with non-linear regression analysis to determine IC50 values for test compounds.

[2] = system: phosphorylated Akt at serine 473 (pAKTs473) in primary human lung fibroblasts; test: High throughput phosphorylated Akt (Ser473) in vitro immunoassay (MSD); format: cell-based; settings: Fibroblast, primary human lung fibroblasts (Lonza), 384-well, compound 1 h, PDGF-BB 10 ng/ml 10 min, read-out: mean pIC50, pAKTser473 high throughput immunoassay (converted)
Text: Immunoassay to measure effect of test compounds on phosphorylated Akt at serine 473 (pAKTs473) in primary human lung fibroblasts (Lonza Group Ltd, Basel, Switzerland, Catalogue No. CC-2512) using the MesoScale Discovery (MSD) platform to quantify levels of total Akt and pAKTser473.
Human lung fibroblasts were routinely maintained in fibroblast basal medium supplemented with 2% foetal bovine serum (FBS), 0.1% human fibroblast growth factor (FGF)-B, 0.1% insulin, 0.1% GA-100 (Lonza Group Ltd, Basel, Switzerland, Catalogue No. CC-3132) at 37° C. in 5% CO2 according to the manufacturer's protocol.
For the assay, cells were harvested using Trypsin/EDTA, (Lonza Group Ltd, Basel, Switzerland, Catalogue No. CC-5012), at working concentration of 0.025%, resuspended to give 3×10^5 cells/ml and 50 ul/well seeded into 384-well plates (Greiner Group, Kremsmunster, Austria, Catalogue No. 781091) in media containing 0.4% FBS and incubated o/n at 37° C. in 5% CO2.
Test compounds were dissolved in 100% DMSO to give 10 mM stock solutions and serially diluted to generate an 11-point concentration response curve. Compound were further diluted by […] into 384-well V-bottom polypropylene plates (Greiner Group, Kremsmunster, Austria, Catalogue No. 781280) with media containing 0.4% FBS to give 50 µM top compound concentration in 0.5% DMSO.
Compounds were transferred to 384-well plates contacting cells (0.1% DMSO final) and incubated for 1 h at 37° C. in 5% CO2, prior to stimulation with platelet-derived growth factor (PDGF)-BB (R&D Systems, Catalogue No. 220-BB) at 10 ng/ml (final) for 10 min at RT. Cell assay plates were incubated on ice and treated with lysis buffer (Cell Signalling Technology, Catalogue No. 9806) containing protease and phosphatase inhibitors (Thermo Scientific, Catalogue No. 78444) followed by shaking for 30 min at 4° C.
MSD plates (MSD, MA6000 384-well GAR plate, Catalogue No. L21RA-2) were blocked with blocking buffer containing TBS (MSD, Cat. No. R61TX-1) with 0.5% bovine serum albumin (BSA) (Sigma Aldrich, Cat. No. A7906), 0.1% tween-20 (Sigma Aldrich, Catalogue No. P2287) and coated with rabbit-anti-human pAkt (s473) ab (Cell Signalling Technology, Catalogue No. CST #4060) at RT with shaking, followed by washing (×3) with 1×TBS wash reagent containing 0.1% Tween-20. Cell lysates (30 ul) were added and MSD plates centrifuged at 1000 rpm at 4° C. o/n.
Plates were washed with 1×TBS wash buffer (×3), prior to addition of mouse-anti-human-total Akt ab (1 mg/ml) (Upstate (Milipore), Catalogue No. 05-591) in blocking buffer and shaken at RT for 1 h. After washing with 1×TBS wash buffer (×3), plates were incubated with goat-anti-mouse SULFO-TAG detection ab (MSD, Catalogue No. R32AC-1) (1:500 in blocking buffer) for 1 h at RT. Plates were washed with 1×TBS (×3) and read buffer (2×) (MSD, Catalogue No. R92TC-1) added before detecting electrochemiluminescence (MSD Sector Imager 6000).
Data analysis was performed by determining % inhibition values for test compounds relative to the minimum (+PDGF-BB stimulation) and maximum responses (no PDGF-BB stimulation) with non-linear regression analysis to determine IC50 values for test compounds.

[3] = molecular target: T1, mTOR (Homo sapiens, UniProt P42345); test: mTOR kinobeads competition-binding assay; settings: HuT-78 cell lysate, bead-immobilized capturing ligand, 2 h at 4° C., mean of multiple experiments; read-out: mean pIC50, mTOR kinobeads assay (converted)
T1 construct: capturing of endogenously expressed target proteins from cell extracts by a bead-immobilized capturing ligand; endogenous in cells; host or cells: HuT-78 cells (ECACC 88041901), cell lysate
Method: The affinity of test compounds for mTOR was determined in the mTOR kinobeads assay. This is a competition-binding assay based on the capturing of endogenously expressed target proteins from cell extracts by a bead-immobilized capturing ligand in the presence of the test compound.
HuT-78 cells (European Collection of Authenticated Cell Cultures, 88041901) were cultured according to vendor's instructions. Frozen cell pellets were homogenized in 3× pellet volumes lysis buffer (50 mM Tris-HCl, 0.4% (v/v) Igepal-CA630, 5% glycerol, 150 mM NaCl, 1.5 mM MgCl2, 25 mM NaF, 1 mM sodium vanadate, 1 mM DTT, pH 7.5, supplemented with EDTA-free protease inhibitor tablet (Roche)). The sample was dispersed using a Dounce homogenizer, kept rotating for 30 min at 4° C., and centrifuged for 10 min at 20000 gat 4° C. The supernatant was centrifuged again for 1 h at 145 000 g. The protein concentration was determined by Bradford assay (BioRad), aliquots were snap frozen in liquid nitrogen and stored at −80° C.
The capturing matrices were generated by derivatizing N-hydroxysuccinimide (NHS) activated Sepharose 4 beads (GE Healthcare) with the functionalized ligands Compound A and Compound C at a ligand density of 5 mM. Remaining NHS-groups were blocked with ethanolamine.
For the mTOR kinobeads assay the matrices were combined in a 1:1 ratio and equilibrated in DP buffer (50 mM Tris-HCl (pH 7.5), 0.4% (v/v) Igepal-CA630, 5% (v/v) glycerol, 150 mM NaCl, 1.5 mM MgCl2, 25 mM NaF, 1 mM Na3VO4, 1 mM dithiothreitol). All steps of the mTOR kinobeads assay were performed at 4° C. or on ice. The cell lysate was diluted with DP buffer to a final concentration of 5 mg/ml and a final detergent concentration of 0.4% (v/v) Igepal-CA630. For the assay 250 μg cell lysate and 2.5 μl capturing matrix per well (final assay volume: 75 μl) were incubated in the presence of test compounds in a 384-well filter plate (MultiScreenHTS HV Filter Plate, 0.45 μm, MZHVNOW50, Merck Millipore). Each plate contained 16 positive (100 μM Compound B) and 16 negative (2% v/v DMSO) control wells. Compounds were tested in a concentration-response applying 1:3 or 1:4 dilution steps for in total 11 data points. DMSO concentration was 2% (v/v). After 2 h incubation on an overhead shaker (Roto-Shake Genie, Scientific Industries Inc.) at 4° C. the non-bound fraction was removed by washing the beads with DP buffer. Proteins retained on the beads were eluted in SDS sample buffer (200 mM Tris (pH 7.4), 250 mM Trizma Base, 4% (w/v) SDS, 20% (v/v) glycerol, 0.01% (w/v) bromophenol blue, 50 mM dithiothreitol) into a collection plate (384 well polypropylene microplate, V-shape, Greiner, 781 280). Eluates were spotted on nitrocellulose membranes (400 nl per spot) using an automated pin-tool liquid transfer (Biomek FX, Beckman). After drying, the membranes were rehydrated in 20% (v/v) ethanol and blocked by incubation with Odyssey blocking buffer (LICOR, 927-40000) for 1 h at room temperature. Blocked membranes were incubated overnight at 25° C. with Odyssey blocking buffer supplemented with a specific anti-mTOR antibody (Cell Signaling, 2972; 1:500) and 0.4% TWEEN-20. Then the membranes were washed in PBST buffer and incubated for 60 minutes at room temperature with the detection antibody (IRDye™ labelled antibody from LI-COR) diluted in Odyssey blocking buffer (LICOR 927-40000) containing 0.2% TWEEN-20. Then the membranes were washed with PBST and finally rinsed twice with PBS buffer to remove residual Tween-20. The membranes were then scanned with the Odyssey® Infrared Imaging System (LI-COR Biosciences). Fluorescence signals were recorded and analyzed according to the instructions of the manufacturer. Concentration response curves were computed with the software Activity Base. All data were normalized to the mean of 16 high (negative control) and 16 low (positive control) control wells on each plate. […]

SMILES: CC[C@H]1COCCN1c1cc(CS(C)(=O)=O)cc(-c2ccc3[nH]c(C)cc3n2)n1 [Example 22, (S)-3-ethyl-4-(6-(2-methyl-1H-pyrrolo[3,2-b]pyridin-5-yl)-4-((methylsulfonyl)methyl)pyridin-2-yl)morpholine]
IC50 [1]: 20 to 3160 nM
IC50 [2]: 2.51 to 25.1 nM

SMILES: CC[C@H]1COCCN1c1cc(C2(S(C)(=O)=O)CCOCC2)cc(-c2ccc3[nH]c(C)cc3n2)n1 [Example 21, (S)-3-ethyl-4-(6-(2-methyl-1H-pyrrolo[3,2-b]pyridin-5-yl)-4-(4-(methylsulfonyl)tetra-hydro-2H-pyran-4-yl)pyridin-2-yl)morpholine]
IC50 [1]: 20 to 3160 nM
IC50 [2]: 2.51 to 25.1 nM

IC50 [3]: 1260 nM
SMILES: CC[C@@H]1COCC(=O)N1c1cc(CS(C)(=O)=O)cc(-c2ccc3[nH]c(CNC)cc3n2)n1 [Example 34, (R)-5-ethyl-4-(6-(2-((methylamino)methyl)-1H-pyrrolo[3,2-b]pyridin-5-yl)-4-((methylsulfonyl)methyl)pyridin-2-yl)morpholin-3-one]
IC50 [2]: 7940 nM
